This is an account of results in patent publication US20050008664A1, “Compositions and methods related to lipid:emodin formulations” (Board of Regents, The University of Texas System, priority 2002, published 2005).

One data set has as its system leukemia. Kind of data set: In vivo study of alkaline emodin preparation in leukemia-injected C3H-HEJ mice. As to the method: In vivo: The mouse strain C3H-HEJ (8-10 weeks old) were used for in vivo studies. Emodin was prepared in an alkaline preparation at 10 mg/ml, and was administered to the animals via tail vein injections. One cohort of animals received a single dose of emodin equal to 43 mg/kg per animal. Two other cohorts received either two doses of drug, administered on consecutive days, or there doses of drug, administered on consecutive days. The total concentration of drug administered were 86 mg/kg and 129 mg/kg, respectively. Animals were followed until death, euthanized upon detection of illness, or euthanized at 100 days post leukemia injection.

Data set [1] deals with tetracycline regulatable 32D-P210 cell line. Kind of data set: MTT assay of cell growth, 3 day exposure to emodin. In kind it is cell-based. The following applies: emodin solubilized in DMSO, MTT assay at 72 hours, read-out: IC 50, inhibition of cellular growth. The protocol: In Vitro: A tetracycline regulatable 32D-P210 cell line was cultured in RPMI 1640 with 10% FCS and 10% Wehi supernatant and cultured at 37° C. Emodin was solubilized in DMSO at a concentration of 0.4 M for in vitro assays. A concentration of 3×10^4 cells/ml were used in a 24 well plate for a 3 day exposure to emodin. Emodin was assayed at 60 μM, 30 μM, and 10 μM concentrations. At 72 hours, a MTT assay was performed to provide a colorometric analysis of cell growth.

Take `Cc1cc(O)c2c(c1)C(=O)c1cc(O)cc(O)c1C2=O` [emodin, 3-methyl-1,6, 8 trihydroxyanthra-quinone]: the “tolerability of the preparation by the animal” value with leukemia (alkaline preparation at pH 10, tail vein injection, some bruising of the tail noted) is given as “moderately well tolerated”. Also, in the data set on leukemia (alkaline preparation, tail vein injections, 43, 86 or 129 mg/kg total, untreated 25 days, animals sacrificed at 100 days), the “lifespan of animals injected with leukemia” value was determined as 100 days. In addition, in data set [1], the IC50 was ~10 µM.
